# Tests used:
# RARα receptor = molecular target: T1, RARα receptor (Homo sapiens, UniProt P10276); conditions: cited from earlier work
# T1 sequence (P10276 1-462): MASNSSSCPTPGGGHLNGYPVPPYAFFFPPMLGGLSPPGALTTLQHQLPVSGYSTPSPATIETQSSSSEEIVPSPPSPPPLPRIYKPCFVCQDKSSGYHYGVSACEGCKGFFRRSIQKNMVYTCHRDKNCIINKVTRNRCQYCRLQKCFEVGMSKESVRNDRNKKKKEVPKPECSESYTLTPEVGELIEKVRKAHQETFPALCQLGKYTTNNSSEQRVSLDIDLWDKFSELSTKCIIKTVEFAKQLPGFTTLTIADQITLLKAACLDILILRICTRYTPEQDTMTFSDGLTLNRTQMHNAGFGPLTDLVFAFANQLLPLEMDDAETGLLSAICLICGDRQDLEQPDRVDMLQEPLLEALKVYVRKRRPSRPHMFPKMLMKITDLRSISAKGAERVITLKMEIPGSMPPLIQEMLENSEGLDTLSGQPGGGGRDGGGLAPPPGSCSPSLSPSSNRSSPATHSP
# RARβ receptor = molecular target: T2, RARβ receptor (Homo sapiens, UniProt P10826); conditions: cited from earlier work
# T2 sequence (P10826 1-455): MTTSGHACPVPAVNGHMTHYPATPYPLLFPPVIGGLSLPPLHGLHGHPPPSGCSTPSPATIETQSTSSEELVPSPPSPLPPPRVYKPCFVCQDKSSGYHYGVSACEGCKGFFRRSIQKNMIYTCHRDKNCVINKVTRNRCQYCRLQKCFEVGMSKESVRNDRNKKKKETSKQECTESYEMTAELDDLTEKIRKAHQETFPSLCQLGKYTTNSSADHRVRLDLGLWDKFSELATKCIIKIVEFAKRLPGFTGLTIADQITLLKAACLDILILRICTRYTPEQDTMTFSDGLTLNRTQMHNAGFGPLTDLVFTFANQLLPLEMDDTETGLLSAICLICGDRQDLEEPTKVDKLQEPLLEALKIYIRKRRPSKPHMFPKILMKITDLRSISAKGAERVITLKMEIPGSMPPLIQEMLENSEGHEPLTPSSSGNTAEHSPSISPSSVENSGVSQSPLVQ
# RARγ receptor = molecular target: T3, RARγ receptor (Homo sapiens, UniProt P13631); conditions: cited from earlier work
# T3 sequence (P13631 1-454): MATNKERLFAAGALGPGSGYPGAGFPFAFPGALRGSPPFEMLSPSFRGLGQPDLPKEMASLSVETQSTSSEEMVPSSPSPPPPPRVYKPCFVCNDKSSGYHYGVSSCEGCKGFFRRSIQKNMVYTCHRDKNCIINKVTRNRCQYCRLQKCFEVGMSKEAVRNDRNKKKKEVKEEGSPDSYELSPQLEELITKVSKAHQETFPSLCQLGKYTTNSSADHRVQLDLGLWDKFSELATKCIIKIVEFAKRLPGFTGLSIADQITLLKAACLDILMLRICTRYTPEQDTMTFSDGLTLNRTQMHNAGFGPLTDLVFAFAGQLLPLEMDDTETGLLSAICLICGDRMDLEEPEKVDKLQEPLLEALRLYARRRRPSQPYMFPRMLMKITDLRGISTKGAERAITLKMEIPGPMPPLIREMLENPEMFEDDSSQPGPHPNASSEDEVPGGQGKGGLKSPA
# [1] = molecular target: T4, VWF A1 domain/GPIbα interaction (Homo sapiens, UniProt P04275+P07359); test: Single-molecule optical tweezer force-extension (pulling) assay on covalently tethered A1-GPIbα chimeric fusion polypeptide; type: binding; conditions: presence vs absence of activator, fixed pulling rate (FIG. 5D-5F)
# T4 construct: human VWF A1 domain (Ile1262 to Pro1466 with pre-pro-VWF numbering); human platelet GPIbα (His1 to Arg290) were PCR-amplified; made in house; host or cells: HEK293T
# Description: In the example described herein, the inventors tethered this single polypeptide to the solid surfaces of two different microspheres using double-stranded DNA (dsDNA) handles. One end of the chimeric polypeptide was tethered to a first dsDNA handle and the other end of the polypeptide was tethered to a second dsDNA handle. The polypeptide was coupled to the dsDNA handles via S—S-bond or disulfide bridges. The free ends of the dsDNA were then linked to digoxigenin or biotin (see FIGS. 3A, 4B & 4C, 10). The dsDNA coupled A1/GPIbα polypeptide was then mixed with beads that were coated with either anti-digoxigenin or streptavidin. The inventors then manipulated the beads with a pipette and a focus laser beam from an optical tweezer to stretch out or extend the A1/GPIbα polypeptide in order to study the minute forces, in pico Newtons (pN), required to dissociate the VWF A1 domain/GPIbα interaction. […] In addition, the inventors measured the extensions of the VWF A1 domain/GPIbα polypeptide that are required to keep the extension force constant. […]
# In the example, the inventors monitored the forces applied to the A1/GPIbα polypeptide that is required to extend or stretch out the polypeptide from a ligand-bound state to a ligand-unbonud state with an optical tweezer (see FIG. 8 for the ligand bound and non-ligand bound state of the A1/GPIbα polypeptide). […]
# T4 sequence (P04275 1262-1466): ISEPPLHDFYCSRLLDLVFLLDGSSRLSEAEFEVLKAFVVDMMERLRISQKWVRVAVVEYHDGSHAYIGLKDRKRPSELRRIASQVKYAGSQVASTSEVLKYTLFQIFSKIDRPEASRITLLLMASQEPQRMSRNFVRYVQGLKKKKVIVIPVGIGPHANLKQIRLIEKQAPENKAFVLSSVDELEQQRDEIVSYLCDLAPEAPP
# T4 sequence (P07359 17-306): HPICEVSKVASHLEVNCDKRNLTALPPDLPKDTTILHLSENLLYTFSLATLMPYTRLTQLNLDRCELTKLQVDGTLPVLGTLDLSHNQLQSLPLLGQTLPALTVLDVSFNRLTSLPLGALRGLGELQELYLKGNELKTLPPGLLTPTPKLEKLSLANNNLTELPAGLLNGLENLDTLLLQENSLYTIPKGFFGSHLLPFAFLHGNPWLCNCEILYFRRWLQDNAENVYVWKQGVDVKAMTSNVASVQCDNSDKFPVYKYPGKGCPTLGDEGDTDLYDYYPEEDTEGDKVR
Compound,Kd (RARα receptor) [µM],Kd (RARβ receptor) [µM],Kd (RARγ receptor) [µM],average dissociative/unbinding force for the A1/GPIbα interaction [1]
"O=C(O)c1ccc(-c2ccc3cc(O)c(C45CC6CC(CC(C6)C4)C5)cc3c2)cc1 [CD 1530, 4-(6-Hydroxy-7-tricyclo[3.3.1.13,7]dec-1-yl-2-naphthalenyl) benzoic acid]",2.75,1.5,0.15,
botrocetin,,,,increased the average dissociative/unbinding force
ristocetin,,,,increased the average dissociative/unbinding force

# Reference: patent publication US20130040845A1, “METHOD FOR SCREENING RECEPTORS/LIGANDS INTERACTIONS” (IMMUNE DISEASE INSTITUTE, INC., priority 2010, published 2013)
